Experimental data: US11827917B1, “Methods for the conversion of fermentable sugars to ethanol” (Colorado State University Research Foundation, priority 2020, dated 2023)
Marks after values point to notes of the source that are not given here.

Assays:
Assay in all cases: Serum-bottle cultivation in YPD, different yeast strains
Conditions in all cases: 0.2%
[1] = tested on: S. mikatae JAY 1504; format: cell-based
Method: (§1) Analytical methods: Cell growth was evaluated by monitoring OD600 and cell dry mass concentration. For dry mass measurements, 1.0 mL of culture was transferred to a pre-dried and pre-weighed 2-mL centrifuge tube. The tubes were centrifuged for 10 min at 14000 rpm using a microcentrifuge, and then the cell pellets were dried in an oven for 3 days at 65° C. The cell dry mass was determined by subtracting the initial tube mass from the dried mass of tube with cells. The concentrations of glucose, ethanol, and glycerol were measured via HPLC (Shimadzu LC20A series) outfitted with a refractive index detector and using an Aminex HPX-87H (300×7.8 mm) organic acid column and Cation H+ guard cartridge (Bio Rad Laboratories, Hercules, CA). The column was maintained at 65° C. and the mobile phase was 5 mM sulfuric acid with a flow rate of 0.6 mL/min. Standard compound solutions were used to calibrate the HPLC. Each sample was analyzed three times by HPLC.
(§2) Procedure: Seven yeast strains (S. cerevisiae ATCC 26603, S. cerevisiae JAY 238, S. cerevisiae JAY 240, S. cerevisiae JAY 241, S. paradoxus JAY 1502, S. kudriavzezii JAY 1503, and S. mikatae JAY 1504) were pre-cultured in 30 mL of YPD medium in 100 mL serum bottle overnight in a shaker at 30° C. and 200 rpm. The precultured yeast cells of each strains were collected and washed twice. Finally, the cell pellet was resuspended in about 10 mL 0.8% (w/v) NaCl and the OD600 measured. TyrOH, PheOH, and TrpOH were added to 30 mL of YPD medium in 100-mL serum bottles at 0.2% (w/v) respectively. The same amount of DMSO was added in YPD medium and served as control to the TrpOH and TyrOH treatments. The prepared yeast cells were added to obtain the initial cell concentration at OD600=0.2. The serum bottles were sealed and cultured in a shaker at 30° C. and 200 rpm for 24 h. There were three biological replicates for each treatment.

[2] = tested on: S. kudriavzezii JAY 1503; format: cell-based
Method: as §1, §2

[3] = tested on: S. paradoxus JAY 1502; format: cell-based
Method: as §1, §2

[4] = tested on: S. cerevisiae ATCC 26603; format: cell-based, Saccharomyces cerevisiae
Method: as §1, §2

[5] = tested on: S. cerevisiae JAY 238; format: cell-based, Saccharomyces cerevisiae
Method: as §1, §2

[6] = tested on: S. cerevisiae JAY 241; format: cell-based, Saccharomyces cerevisiae
Method: as §1, §2

[7] = tested on: S. cerevisiae JAY 240; format: cell-based, Saccharomyces cerevisiae
Method: as §1, §2

[8] = S. mikatae JAY 1504, YPD (Table 9B)
[9] = S. kudriavzezii JAY 1503, YPD (Table 9B)
[10] = S. paradoxus JAY 1502, YPD (Table 9B)
[11] = S. cerevisiae ATCC 26603, YPD (Table 9B)
[12] = S. cerevisiae JAY 238, YPD (Table 9B)
[13] = S. cerevisiae JAY 241, YPD (Table 9B)
[14] = S. cerevisiae JAY 240, YPD (Table 9B)

`OCCc1ccc(O)cc1` [TyrOH, Tyrosol] was tested, and the “Biomass Yield” value ([1]; S. mikatae JAY 1504) was 0.052 ± 0.000 g/g, the “Biomass yield % change vs. control” value ([1]; S. mikatae JAY 1504) was −20* % and the “EtOH yield” value ([1]; S. mikatae JAY 1504) was 0.359 ± 0.042 g/g. For the same compound, the “EtOH yield % change vs. control” value ([1]; S. mikatae JAY 1504) was “+6.7* %”, the “Glycerol yield” value ([1]; S. mikatae JAY 1504) was 0.036 ± 0.001 g/g and the “Glycerol yield % change vs. control” value ([1]; S. mikatae JAY 1504) was −24* %. The DCW ([1]; S. mikatae JAY 1504, YPD) was 2.65 mg, the “DCW Δ vs. ref” value ([1]; S. mikatae JAY 1504, YPD) was 79.1% and the OD600 ([1]; S. mikatae JAY 1504, YPD) was 1.75. For the same compound, the “OD600 Δ vs. ref” value ([1]; S. mikatae JAY 1504, YPD) was 77.3%, the “Biomass Yield” value [1, 8] was 0.052 + 0.000 g/g and the “Biomass yield Δ vs. ref” value [1, 8] was −20.1%. For the same compound, the Ethanol yield [1, 8] was 0.359 ± 0.042 g/g, the “Ethanol yield Δ vs. ref” value [1, 8] was 6.7% and the Glycerol yield [1, 8] was 0.036 ± 0.001 g/g. The “Glycerol yield Δ vs. ref” value [1, 8] was −23.65%, the “Biomass Yield” value ([2]; S. kudriavzezii JAY 1503) was 0.029 ± 0.000 g/g and the “Biomass yield % change vs. control” value ([2]; S. kudriavzezii JAY 1503) was −35* %. The “EtOH yield” value ([2]; S. kudriavzezii JAY 1503) was 0.388 ± 0.000 g/g, the “EtOH yield % change vs. control” value ([2]; S. kudriavzezii JAY 1503) was “+7.8* %” and the “Glycerol yield” value ([2]; S. kudriavzezii JAY 1503) was 0.056 ± 0.001 g/g. The “Glycerol yield % change vs. control” value ([2]; S. kudriavzezii JAY 1503) was “+8.1%”, the DCW ([2]; S. kudriavzezii JAY 1503, YPD) was 2.10 mg and the “DCW Δ vs. ref” value ([2]; S. kudriavzezii JAY 1503, YPD) was 82.4%. The OD600 ([2]; S. kudriavzezii JAY 1503, YPD) was 0.82, the “OD600 Δ vs. ref” value ([2]; S. kudriavzezii JAY 1503, YPD) was 52.4% and the “Biomass Yield” value [2, 9] was 0.029 + 0.000 g/g. The “Biomass yield Δ vs. ref” value [2, 9] was −35.1%, the Ethanol yield [2, 9] was 0.388 ± 0.000 g/g and the “Ethanol yield Δ vs. ref” value [2, 9] was 7.8%. The Glycerol yield [2, 9] was 0.056 ± 0.001 g/g, the “Glycerol yield Δ vs. ref” value [2, 9] was 8.07% and the “Biomass Yield” value ([3]; S. paradoxus JAY 1502) was 0.055 ± 0.000 g/g. The “Biomass yield % change vs. control” value ([3]; S. paradoxus JAY 1502) was −15* %, the “EtOH yield” value ([3]; S. paradoxus JAY 1502) was 0.410 ± 0.014 g/g and the “Glycerol yield” value ([3]; S. paradoxus JAY 1502) was 0.041 ± 0.001 g/g. The “Glycerol yield % change vs. control” value ([3]; S. paradoxus JAY 1502) was −9.9%, the DCW ([3]; S. paradoxus JAY 1502, YPD) was 2.15 mg and the “DCW Δ vs. ref” value ([3]; S. paradoxus JAY 1502, YPD) was 81.1%. The OD600 ([3]; S. paradoxus JAY 1502, YPD) was 1.90, the “OD600 Δ vs. ref” value ([3]; S. paradoxus JAY 1502, YPD) was 85.5% and the “Biomass Yield” value [3, 10] was 0.055 + 0.000 g/g. The “Biomass yield Δ vs. ref” value [3, 10] was −15.4%, the Ethanol yield [3, 10] was 0.410 ± 0.014 g/g and the “Ethanol yield Δ vs. ref” value [3, 10] was 5.4%. For the same compound, the Glycerol yield [3, 10] was 0.041 ± 0.001 g/g, the “Glycerol yield Δ vs. ref” value [3, 10] was −9.89% and the “Biomass Yield” value ([4]; S. cerevisiae ATCC 26603) was 0.056 ± 0.003 g/g. For the same compound, the “Biomass yield % change vs. control” value ([4]; S. cerevisiae ATCC 26603) was −21* %, the “EtOH yield” value ([4]; S. cerevisiae ATCC 26603) was 0.467 ± 0.015 g/g and the “EtOH yield % change vs. control” value ([4]; S. cerevisiae ATCC 26603) was “+7.7* %”. For the same compound, the “Glycerol yield” value ([4]; S. cerevisiae ATCC 26603) was 0.064 ± 0.006 g/g, the “Glycerol yield % change vs. control” value ([4]; S. cerevisiae ATCC 26603) was −12* % and the DCW ([4]; S. cerevisiae ATCC 26603, YPD) was 1.53 mg. The “DCW Δ vs. ref” value ([4]; S. cerevisiae ATCC 26603, YPD) was 86.8%, the OD600 ([4]; S. cerevisiae ATCC 26603, YPD) was 1.34 and the “OD600 Δ vs. ref” value ([4]; S. cerevisiae ATCC 26603, YPD) was 95.5%. The “Biomass Yield” value [4, 11] was 0.056 + 0.003 g/g, the “Biomass yield Δ vs. ref” value [4, 11] was −20.6% and the Ethanol yield [4, 11] was 0.467 ± 0.015 g/g. The “Ethanol yield Δ vs. ref” value [4, 11] was 7.7%, the Glycerol yield [4, 11] was 0.064 ± 0.006 g/g and the “Glycerol yield Δ vs. ref” value [4, 11] was −11.82%. The “Biomass Yield” value ([5]; S. cerevisiae JAY 238) was 0.058 ± 0.001 g/g, the “Biomass yield % change vs. control” value ([5]; S. cerevisiae JAY 238) was −14* % and the “EtOH yield” value ([5]; S. cerevisiae JAY 238) was 0.455 ± 0.016 g/g. For the same compound, the “EtOH yield % change vs. control” value ([5]; S. cerevisiae JAY 238) was “+8.3* %”, the “Glycerol yield” value ([5]; S. cerevisiae JAY 238) was 0.036 ± 0.002 g/g and the “Glycerol yield % change vs. control” value ([5]; S. cerevisiae JAY 238) was −8.3%. For the same compound, the DCW ([5]; S. cerevisiae JAY 238, YPD) was 2.35 mg, the “DCW Δ vs. ref” value ([5]; S. cerevisiae JAY 238, YPD) was 83.9% and the OD600 ([5]; S. cerevisiae JAY 238, YPD) was 1.99. The “OD600 Δ vs. ref” value ([5]; S. cerevisiae JAY 238, YPD) was 85.0%, the “Biomass Yield” value [5, 12] was 0.058 + 0.001 g/g and the “Biomass yield Δ vs. ref” value [5, 12] was −13.9%. The Ethanol yield [5, 12] was 0.455 ± 0.016 g/g, the “Ethanol yield Δ vs. ref” value [5, 12] was 8.3% and the Glycerol yield [5, 12] was 0.036 ± 0.002 g/g. For the same compound, the “Glycerol yield Δ vs. ref” value [5, 12] was −8.30%, the “Biomass Yield” value ([6]; S. cerevisiae JAY 241) was 0.049 ± 0.000 g/g and the “Biomass yield % change vs. control” value ([6]; S. cerevisiae JAY 241) was −16* %. For the same compound, the “EtOH yield” value ([6]; S. cerevisiae JAY 241) was 0.422 ± 0.013 g/g, the “Glycerol yield” value ([6]; S. cerevisiae JAY 241) was 0.043 ± 0.000 g/g and the “Glycerol yield % change vs. control” value ([6]; S. cerevisiae JAY 241) was −23* %. The “DCW Δ vs. ref” value ([6]; S. cerevisiae JAY 241, YPD) was 88.7%, the OD600 ([6]; S. cerevisiae JAY 241, YPD) was 1.68 and the “OD600 Δ vs. ref” value ([6]; S. cerevisiae JAY 241, YPD) was 84.0%. For the same compound, the “Biomass Yield” value [6, 13] was 0.049 + 0.000 g/g, the “Biomass yield Δ vs. ref” value [6, 13] was −15.7% and the Ethanol yield [6, 13] was 0.422 ± 0.013 g/g. The “Ethanol yield Δ vs. ref” value [6, 13] was 10.4%, the Glycerol yield [6, 13] was 0.043 ± 0.000 g/g and the “Glycerol yield Δ vs. ref” value [6, 13] was −23.39%. For the same compound, the “Biomass Yield” value ([7]; S. cerevisiae JAY 240) was 0.061 ± 0.002 g/g, the “Biomass yield % change vs. control” value ([7]; S. cerevisiae JAY 240) was −16* % and the “EtOH yield” value ([7]; S. cerevisiae JAY 240) was 0.446 ± 0.022 g/g. For the same compound, the “Glycerol yield” value ([7]; S. cerevisiae JAY 240) was 0.034 ± 0.001 g/g, the “Glycerol yield % change vs. control” value ([7]; S. cerevisiae JAY 240) was −15* % and the DCW ([7]; S. cerevisiae JAY 240, YPD) was 2.65 mg. The “DCW Δ vs. ref” value ([7]; S. cerevisiae JAY 240, YPD) was 86.9%, the OD600 ([7]; S. cerevisiae JAY 240, YPD) was 2.09 and the “OD600 Δ vs. ref” value ([7]; S. cerevisiae JAY 240, YPD) was 83.9%. For the same compound, the “Biomass Yield” value [7, 14] was 0.061 + 0.002 g/g, the “Biomass yield Δ vs. ref” value [7, 14] was −15.7% and the Ethanol yield [7, 14] was 0.446 ± 0.022 g/g. The “Ethanol yield Δ vs. ref” value [7, 14] was 10.1%, the Glycerol yield [7, 14] was 0.034 ± 0.001 g/g and the “Glycerol yield Δ vs. ref” value [7, 14] was −14.77%.
